The source of these data is ChEMBL document CHEMBL1201862, “PubChem BioAssay data set” (2004).

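Assay format: 96-well plates, 48-hour exposure. Abbreviation: GI50, concentration required for 50% inhibition of growth.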 The source made the active and inactive calls. Rule as the data show it: active = GI50 up to about 1.1 µM and inactive = higher.

Among the test systems are RPMI-8226; NCI-H522; Malme-3M; SF-268; HCT-15; U-251; MCF7; SK-OV-3; HOP-62; T47D; A549; KM12; MDA-N; UACC-62; OVCAR-5; TK-10; HCT-116; OVCAR-8; CAKI-1; SNB-78.
Common to all, as to experiment: inhibition of tumour cell growth, NCI panel, 48 h

`Cc1nc2ccccc2nc1N1CCCC1`: the GI50 is > 100 µM (inactive) in the test with RPMI-8226; > 100 µM (inactive) with NCI-H522; > 100 µM (inactive) in the test with Malme-3M; > 100 µM (inactive) with SF-268; more than 100 µM in the test on HCT-15; > 100 µM (inactive) with U-251. In addition, the GI50 in the test with MCF7, in the test with SK-OV-3, with HOP-62, in the test on T47D, with A549 and in the test on KM12 was > 100 µM (inactive) in each case. Further, the GI50 in the test on MDA-N, in the test on UACC-62, in the test on OVCAR-5, in the test with TK-10, in the test with HCT-116 and with OVCAR-8 was > 100 µM (inactive) each time. Besides, in the test on CAKI-1, the GI50 is > 100 µM (inactive).
Turning to `O=C1C(=Cc2ccccc2[N+](=O)[O-])N=C(c2ccccc2)N1n1c(-c2ccccc2)nc2ccccc2c1=O`, the GI50 was 20.5 µM (inactive) with RPMI-8226; 17 µM (inactive) in the test on NCI-H522; 25.1 µM (inactive) in the test on Malme-3M; 30.3 µM (inactive) with SF-268; 24.5 µM in the test on HCT-15; 30 µM (inactive) with U-251. The GI50 in the test with MCF7 is 17.5 µM (inactive); in the test on SK-OV-3, 40.7 µM (inactive); with HOP-62, 28.6 µM (inactive); in the test with T47D, 21 µM (inactive); in the test with A549, 35.7 µM (inactive); in the test with KM12, 26.9 µM (inactive). Also, the GI50 was 36.4 µM (inactive) with MDA-N; 19.1 µM (inactive) in the test with UACC-62; 71.3 µM (inactive) in the test with OVCAR-5; > 100 µM (inactive) in the test on TK-10; 17 µM (inactive) with HCT-116; 24.7 µM (inactive) with OVCAR-8. Also, in the test with CAKI-1, the GI50 was 39.1 µM (inactive).
`CCCC[Si](CCCC)(CCCC)O[C@@H](/C=C/C(=O)OCC)[C@H](Cc1ccccc1)O[Si](CCCC)(CCCC)CCCC`: the GI50 was > 100 µM (inactive) in the test on RPMI-8226; > 100 µM (inactive) in the test on NCI-H522; > 100 µM (inactive) in the test on Malme-3M; > 100 µM (inactive) with SF-268; more than 100 µM with HCT-15; > 100 µM (inactive) with U-251. Besides, the GI50 in the test on MCF7, with SK-OV-3, with HOP-62, in the test with T47D, in the test with A549 and in the test on KM12 was > 100 µM (inactive) in each case. Besides, the GI50 in the test on MDA-N was > 100 µM (inactive); with UACC-62 it was > 100 µM (inactive); in the test on OVCAR-5, > 100 µM (inactive); in the test on TK-10, 40.1 µM (inactive); in the test with HCT-116, > 100 µM (inactive); in the test on OVCAR-8, > 100 µM (inactive). Besides, in the test on CAKI-1, the GI50 was > 100 µM (inactive).
On to `O=C(Nc1ccccc1)Oc1ccccc1C1CCCCC1`, for which the GI50 with RPMI-8226 was 19 µM (inactive); in the test on Malme-3M, 21.1 µM (inactive); in the test on SF-268 it was 36.3 µM (inactive); in the test on SNB-78 it was 17.7 µM (inactive); in the test with HCT-15 it was 16.6 µM; with U-251, 12 µM (inactive). Further, the GI50 in the test with SK-OV-3 was 44.5 µM (inactive); with HOP-62, 18.1 µM (inactive); in the test on A549, 20.9 µM (inactive); with KM12 it was 26.8 µM (inactive); with UACC-62, 25.5 µM (inactive); in the test with OVCAR-5, 11.8 µM (inactive). Moreover, the figures for the GI50 in the test on TK-10, with HCT-116 and with OVCAR-8 were 28.8 µM (inactive), 21.9 µM (inactive) and 29.6 µM (inactive), respectively.
As to `Cc1c(C(=O)C/C(=N/NC(=O)c2ccccc2O)C(=O)Nc2ccccc2C(C)C)[n+]([O-])c2ccccc2[n+]1[O-]`, the GI50 in the test with NCI-H522 was 20.9 µM (inactive); with Malme-3M, 48.6 µM (inactive); with SF-268 it was 33.9 µM (inactive); in the test with SNB-78 it was 84.7 µM (inactive); in the test on HCT-15, 30.3 µM; in the test with U-251, 45 µM (inactive). The GI50 was > 100 µM (inactive) in the test on SK-OV-3; > 100 µM (inactive) in the test on HOP-62; 34.7 µM (inactive) with A549; 53.6 µM (inactive) in the test with KM12; 20 µM (inactive) in the test on UACC-62; > 100 µM (inactive) in the test with OVCAR-5. For the same molecule, the GI50 in the test with TK-10 was > 100 µM (inactive); with HCT-116 it was 27.7 µM (inactive); in the test on OVCAR-8 it was 29.6 µM (inactive); in the test on CAKI-1, 30.8 µM (inactive).
Turning to `O=[N+]([O-])c1cc(Cl)cc2cc(Br)cnc12`, the GI50 in the test on RPMI-8226 was > 31.6 µM (inactive); with NCI-H522 it was 29.6 µM (inactive); in the test on Malme-3M, > 31.6 µM (inactive); in the test with SF-268, > 10 µM (inactive); in the test on HCT-15, more than 31.6 µM; in the test with U-251, 20.1 µM (inactive). Besides, the GI50 is > 31.6 µM (inactive) in the test on MCF7; > 10 µM (inactive) in the test with SK-OV-3; > 31.6 µM (inactive) with HOP-62; > 31.6 µM (inactive) in the test with T47D; > 31.6 µM (inactive) in the test with A549; > 10 µM (inactive) in the test with KM12. Moreover, the GI50 was > 31.6 µM (inactive) in the test with MDA-N; 23.2 µM (inactive) with UACC-62; > 31.6 µM (inactive) in the test with OVCAR-5; 27.7 µM (inactive) in the test on TK-10; > 31.6 µM (inactive) with HCT-116; 24.1 µM (inactive) in the test on OVCAR-8. Also, in the test with CAKI-1, the GI50 was > 10 µM (inactive).
Take `C1CN(C23OC4(N5CCOCC5)C5C6CC(C7C6C4C72)C53)CCO1` (stereo not given): the GI50 with RPMI-8226 is > 100 µM (inactive); with NCI-H522, > 83.4 µM (inactive); in the test with Malme-3M it was > 100 µM (inactive); in the test with SF-268, > 100 µM (inactive); in the test on HCT-15, more than 100 µM; with U-251 it was > 100 µM (inactive). The GI50 in the test on MCF7, with SK-OV-3, in the test with HOP-62, in the test with T47D, with A549 and with KM12 was > 100 µM (inactive) throughout. The GI50 in the test with MDA-N, in the test with UACC-62, with OVCAR-5, in the test on TK-10, with HCT-116 and in the test with OVCAR-8 was > 100 µM (inactive) each time. In the test on CAKI-1, the GI50 is > 100 µM (inactive).
As for `CCC1CNC(=O)CC1CC(=O)OC` (stereo not given), the GI50 was > 100 µM (inactive) in the test with NCI-H522; > 100 µM (inactive) with Malme-3M; > 100 µM (inactive) in the test on SF-268; > 100 µM (inactive) with SNB-78; more than 100 µM with HCT-15; > 100 µM (inactive) with U-251. Moreover, the GI50 in the test with SK-OV-3, in the test with HOP-62, in the test with A549, in the test on KM12, in the test with UACC-62 and in the test with OVCAR-5 was > 100 µM (inactive) throughout. Also, the GI50 in the test with TK-10, with HCT-116 and in the test on CAKI-1 was > 100 µM (inactive) in each case.
Take `O=Cc1coc2ccccc2c1=O`: the GI50 in the test with RPMI-8226 is 15.3 µM (inactive); with NCI-H522 it was 19.1 µM (inactive); in the test with Malme-3M, 9.68 µM (inactive); in the test with SF-268, 20.8 µM (inactive); in the test on HCT-15 it was 14.3 µM; in the test on U-251 it was 21.3 µM (inactive). For the same molecule, the GI50 with MCF7 was 19.2 µM (inactive); with SK-OV-3 it was 20 µM (inactive); in the test on HOP-62, 19.1 µM (inactive); in the test with T47D it was 48.1 µM (inactive); with A549, 25.1 µM (inactive); with KM12, 24.2 µM (inactive). The GI50 was 20.5 µM (inactive) with MDA-N; 19.9 µM (inactive) in the test with UACC-62; 23.1 µM (inactive) in the test with OVCAR-5; 17.7 µM (inactive) with TK-10; 16.5 µM (inactive) in the test with HCT-116; 15 µM (inactive) in the test with OVCAR-8. For the same molecule, the GI50 in the test with CAKI-1 was 19.2 µM (inactive).
`C=C1CC/C=C(\C)C(=O)C[C@@H]2[C@@H]1CC2(C)C` [BUDDLEDIN C]: the GI50 in the test with RPMI-8226 was 2.02 µM (inactive); in the test on NCI-H522, 0.439 µM (active); in the test with Malme-3M, 2.48 µM (inactive); with SF-268, 14.1 µM (inactive); with HCT-15, 0.689 µM; in the test on U-251, 6.79 µM (inactive). Further, the GI50 was 0.561 µM (active) with MCF7; 20.3 µM (inactive) in the test on SK-OV-3; 15.3 µM (inactive) in the test on HOP-62; 2.31 µM (inactive) in the test with T47D; 13.9 µM (inactive) in the test with A549; 15 µM (inactive) in the test on KM12. The GI50 with MDA-N is 1.2 µM (inactive); with UACC-62, 5.96 µM (inactive); in the test with OVCAR-5 it was 9.46 µM (inactive); with TK-10 it was 3.13 µM (inactive); with HCT-116, 1.17 µM (inactive); in the test on OVCAR-8 it was 4.7 µM (inactive). Besides, the GI50 in the test on CAKI-1 is 1.38 µM (inactive).
Take `COc1cc(CO)cc2c1[nH]c1ccccc12` [KOENOLINE]: the GI50 is > 25 µM (inactive) in the test on RPMI-8226; 24.6 µM (inactive) in the test on NCI-H522; > 25 µM (inactive) with Malme-3M; > 25 µM (inactive) in the test on SF-268; > 25 µM (inactive) with SNB-78; more than 25 µM with HCT-15. For the same molecule, the GI50 with U-251, with SK-OV-3, in the test on HOP-62, in the test on A549, with KM12 and with UACC-62 was > 25 µM (inactive) throughout. The GI50 with OVCAR-5 was 20.8 µM (inactive); in the test on TK-10, > 25 µM (inactive); in the test with HCT-116, > 25 µM (inactive); with OVCAR-8 it was > 25 µM (inactive).
